18 molecules from US20130310384A1, “Sulfonamide-Containing Compounds” (THE BRIGHAM AND WOMEN'S HOSPITAL, INC., priority 2010, published 2013) can be followed below.

Data set [1] deals with Human Aβ38, Aβ40 and Aβ42 levels. Briefly: Acute in vivo efficacy study in hAPPSL transgenic mice (Aβ levels by immunosorbent assay). The note with it: 6-month-old female hAPPSL Tg mice, oral b.i.d. 50 and 100 mg/kg, 7 consecutive days. As to the method:
(§1) A preliminary acute efficacy study in 6-month-old female hAPPSL transgenic (Tg) mice (Rockenstein, E., Mallory, M., Mante, M., Sisk, A., and Masliah, E. (2001) J Neurosci Res 66, 573-582) was completed on the compound of Example 1. Mice were treated orally (b.i.d.) with two doses, 50 mg/kg (n=4) and 100 mg/kg (n=4) for 7 consecutive days. […] Human Aβ38, Aβ40 and Aβ42 levels were determined in the cortex, hippocampus, and cerebral spinal fluid (CSF) by an immunosorbent assay.

Data set [2] can be described thus: Tolerability in the acute in vivo study (7 consecutive days, oral b.i.d.).
Text: [VIII] Embodiments can include any one or more of the following advantages. […] Selective inhibition of the cleavage of APP relative to that of the Notch receptor is believed to minimize certain unwanted side effects, such as lymphopoiesis and intestinal cell differentiation. […] This is an indication that there could be a minimization of side effects with these types of compounds
as §1

Where [3] appears, read: hAPPSL Tg mice, oral b.i.d. 50 and 100 mg/kg, 7 consecutive days.

Molecules are shown by their SMILES.

The molecule `CC(C)N(Cc1ccc(Cl)c(Cl)c1)S(=O)(=O)c1ccc(Cl)s1` [Example 43, 5-Chloro-N-(3,4-dichlorobenzyl)-N-isopropylthiophene-2-sulfonamide] had a melting point of 66 to 67 °C.

The molecule `CC[C@@H](c1ccc(C(F)(F)F)cc1)N(Cc1ccc(C(=O)OC)cc1)S(=O)(=O)c1ccc(Cl)cc1` [Example 122, (S)-Methyl 4-((4-chloro-N-(1-(4-(trifluoromethyl)phenyl)propyl)phenylsulfonamido)methyl)benzoate] showed a melting point of 123 to 125 °C.

Molecule `O=C(O)c1ccc(CN([C@@H](CO)c2ccccc2)S(=O)(=O)c2ccc(Cl)cc2)cc1` [Example 51, (R)-4-((4-Chloro-N-(2-hydroxy-1-phenylethyl)phenylsulfonamido)methyl)benzoic acid] came in with a melting point of 85 to 87 °C.

Molecule `CCC(CC)N(Cc1ccc(C(=O)O)cn1)S(=O)(=O)c1ccc(F)cc1` [Example 37, 6-((4-Fluoro-N-(pentan-3-yl)phenylsulfonamido)methyl)nicotinic acid] registered a melting point of 145 to 147 °C.

In turn, `CCC(CC)N(Cc1ccc(C(=O)OC)cn1)S(=O)(=O)c1ccc(F)cc1` [Example 34, Methyl 6-((4-fluoro-N-(pentan-3-yl)phenylsulfonamido)methyl)nicotinate] yielded a melting point of 117 to 119 °C.

In the case of `C[C@H](O)[C@H](CO)N(Cc1ccc(C#N)cc1)S(=O)(=O)c1ccc(Cl)cc1` [Example 132, 4-Chloro-N-(4-cyanobenzyl)-N-((2S,3S)-1,3-dihydroxybutan-2-yl)-benzene-sulfonamide], the melting point was 124 to 126 °C.

`O=C(O)c1ccc(CN([C@H](CO)c2ccccc2)S(=O)(=O)c2ccc(Cl)cc2)cc1` (hydrate or solvate) [Example 95, (S)-4-((4-Chloro-N-(2-hydroxy-1-phenylethyl)phenylsulfonamido)methyl)benzoic acid] displayed a melting point of 86 to 88 °C.

In turn, `C[C@@H](c1ccc(Cl)cc1)N(Cc1ccc(C(=O)O)cc1)S(=O)(=O)c1ccc(Cl)cc1` [Example 141, (S)-4-((4-Chloro-N-(1-(4-chlorophenyl)ethyl)phenylsulfonamido)methyl)benzoic acid] showed a melting point of 163 to 165 °C.

In turn, `CCC(CC)N(Cc1ccc(C(=O)OC)cc1)S(=O)(=O)c1ccc(Cl)cc1` [Example 40, Methyl 4-((4-chloro-N-(pentan-3-yl)phenylsulfonamido)methyl)benzoate] registered a melting point of 95 to 97 °C.

In turn, `CC[C@@H](c1ccccc1)N(Cc1ccc(C(=O)NC[C@H](C)O)cc1)S(=O)(=O)c1ccc(Cl)cc1` [Example 80, 4-((4-Chloro-N—((S)-1-phenylpropyl)phenylsulfonamido)methyl)-N-((S)-2-hydroxypropyl)benzamide] gave a melting point of 78 to 80 °C.

`COC(=O)c1ccc(CN(C(C)C)S(=O)(=O)c2ccc(F)cc2)cc1` [Example 45, Methyl 4-((4-fluoro-N-isopropylphenylsulfonamido)methyl)benzoate] gave a melting point of 118 to 120 °C.

For `CC[C@@H](c1ccccc1)N(Cc1ccc(C(=O)OC)cc1)S(=O)(=O)c1ccc(F)cc1` [Example 21, (S)-Methyl 4-((4-fluoro-N-(1-phenylpropyl)phenylsulfonamido)methyl)benzoate], the melting point was 107 to 109 °C.

Turning to `COC(=O)c1ccc(CN([C@@H](C)c2ccc(Cl)cc2)S(=O)(=O)c2ccc(Cl)cc2)cc1` [Example 141, (S)-Methyl 4-((4-chloro-N-(1-(4-chlorophenyl)ethyl)phenylsulfonamido)methyl)benzoate], the melting point was 67 to 69 °C.

As for `C[C@H](O)[C@H](CO)N(Cc1ccc(C#N)cc1F)S(=O)(=O)c1ccc(Cl)cc1` [Example 131, 4-Chloro-N-(4-cyano-2-fluorobenzyl)-N-((2S,3S)-1,3-dihydroxybutan-2-yl)-benzenesulfonamide], the melting point lay in the range of 112 to 114 °C.

Regarding `CC[C@@H](c1ccc(C#N)cc1)N(Cc1ccc(C(=O)O)cc1)S(=O)(=O)c1ccc(Cl)cc1` [Example 103, (S)-4-((4-Chloro-N-(1-(4-cyanophenyl)propyl)phenylsulfonamido)methyl)benzoic acid], the melting point is 132 to 133 °C.

With `CC[C@@H](c1ccccc1)N(Cc1ccc(C(=O)O)cc1)S(=O)(=O)c1ccc(Cl)cc1` [Example 1, (S)-4-((4-Chloro-N-(1-phenylpropyl)phenylsulfonamido)methyl)benzoic acid], in data set [1] (p<0.01), the “Reduction of Aβ40 in the hippocampus” value was “Statistically significant reductions”. For the same molecule, in data set [1] (p<0.05), the “Reduction of Aβ38 in the hippocampus” value is reported as “Statistically significant reductions”. Also, the “Toxicity in in vivo efficacy study” value in data set [2] (100 mg/kg b.i.d. for 7 consecutive days, transgenic and nontransgenic mice) is listed as “no toxicity was observed”. In addition, in data set [2] (setting [3]), the “Adverse side effects on any organ compared to vehicle controls” value was “no obvious adverse side effects” and the Mortality during treatment entry is given as “No mice died”.

Turning to `CC[C@H](c1ccc(C(F)(F)F)cc1)N(Cc1ccc(C(=O)O)cc1)S(=O)(=O)c1ccc(Cl)cc1` [Example 126, (R)-4-((4-Chloro-N-(1-(4-(trifluoromethyl)phenyl)propyl)phenylsulfonamido)methyl)benzoic acid], the melting point was in the range of 105 to 107 °C.

Molecule `C[C@H](O)[C@H](CO)N(Cc1ccc(C(=O)O)cc1)S(=O)(=O)c1ccc(Cl)cc1` [Example 118, 4-((4-Chloro-N-((2S,3S)-1,3-dihydroxybutan-2-yl)phenylsulfonamido)methyl)benzoic acid] registered a melting point of 182 to 184 °C.
